# Measurements reported in patent US20170144969A1, “ANT[…], METHOD FOR PRODUCTION AND USES THEREOF” (priority 2014, published 2017).
# Legend:
# S. aureus biofilms = assay: Bacterial biofilm disruption (pre-formed biofilm); type: cell-based; details: 64×MIC, 24 h
# [1] = tested on: vancomycin resistant Enterococcus faecium (VRE) (ATCC 51559); assay: Minimum Inhibitory Concentration, micro-dilution broth; type: cell-based; details: 24 h, 37° C.
# MRSA (ATCC 33591) = assay: as above; type: cell-based, methicillin-resistant S. aureus; details: 24 h, 37° C.
# human Red Blood Cells = assay: Haemolytic activity; details: for HC50: human RBCs, 1 h at 37° C.
# E. coli (MTCC 443) = assay: Minimum Inhibitory Concentration, micro-dilution broth; type: cell-based; details: 24 h, 37° C.
# [2] = tested on: Klebsiella pneumoniae (ATCC 700603); assay: as above; type: cell-based; details: 24 h, 37° C.
# [3] = tested on: Enterococcus faecium (ATCC 19634); assay: as above; type: cell-based; details: 24 h, 37° C.; read-out: Minimum Inhibitory Concentration E. faceium
# S. aureus (MTCC 737) = assay: as above; type: cell-based, Staphylococcus aureus; details: 24 h, 37° C.
Structure (SMILES),reduction of cell viability in pre-existing biofilms (S. aureus biofilms),MIC [1],Minimum Inhibitory Concentration MRSA (MRSA (ATCC 33591)),HC50 (human Red Blood Cells; Table 6),MIC (E. coli (MTCC 443)),Minimum Inhibitory Concentration K. pneumonie [2],MIC [3],MIC (S. aureus (MTCC 737)),HC50 (human Red Blood Cells; Table 3),hemolysis (human Red Blood Cells; at 1000 µM concentration)
"CC[C@H]1OC(=O)[C@H](C)[C@@H](O[C@H]2C[C@@](C)(OC)[C@@H](O)[C@H](C)O2)[C@H](C)[C@@H](O[C@@H]2O[C@H](C)C[C@H](N(C)C)[C@H]2O)[C@](C)(O)C[C@@H](C)C(=O)[C@H](C)[C@@H](O)[C@]1(C)O [erythromycin, reference compound]",none of the antibiotics showed significant reduction,–,–,–,–,–,–,–,–,–
"CCCCCCCCCCCCCCCC(=O)N(CCCNC(=O)[C@@H]1CCCN1)CCCNC(=O)[C@@H]1CCCN1.O=C(O)C(F)(F)F.O=C(O)C(F)(F)F [Compound 59, N,N-bis-[{3-(^LPro)amido}propyl]hexadecanamide bis(trifluoroacetate)]",–,2.7 µM,7.2 µM,76 µM,4.4 µM,12 µM,4 µM,2.8 µM,–,–
"CCCCCCCCCC(=O)N(CCCNC(=O)[C@@H](N)CCCCN)CCCNC(=O)[C@@H](N)CCCCN.O=C(O)C(F)(F)F.O=C(O)C(F)(F)F [Compound 9, N,N-bis-[{3-(^LLys)amino}propyl]decanamide bis(trifluoroacetate)]",–,58 µM,65 µM,–,40 µM,98 µM,60 µM,53 µM,>1000,did not show any hemolytic
"CCCCCCCCCCCCCC(=O)N(CCCNC(=O)[C@@H](N)CCCCN)CCCNC(=O)[C@@H](N)CCCCN.O=C(O)C(F)(F)F.O=C(O)C(F)(F)F [Compound 11, N,N-bis-[{3-(^LLys)amino}propyl]tetradecanamide bis(trifluoroacetate)]",–,1.5 µM,14 µM,–,5.9 µM,9.3 µM,2 µM,7.8 µM,588,–
"CCCCCCCCCCCCCCCC(=O)N(CCCNC(=O)[C@@H](N)Cc1ccccc1)CCCNC(=O)[C@@H](N)Cc1ccccc1.O=C(O)C(F)(F)F.O=C(O)C(F)(F)F [Compound 4, N,N-bis-[{3-(^LPhe)amino}propyl]hexadecanamide bis(trifluoroacetate)]",–,3 µM,5.2 µM,–,225 µM,70 µM,8.5 µM,10 µM,83,–
"CCCCCCCCCCCC(=O)N(CCCNC(=O)[C@H](C)N)CCCNC(=O)[C@H](C)N.O=C(O)C(F)(F)F.O=C(O)C(F)(F)F [Compound 45, N,N-bis-[{3-(^LAla)amido}propyl]dodecanamide bis(trifluoroacetate)]",–,82 µM,133 µM,562 µM,282 µM,>365 µM,73 µM,95 µM,–,–
"CCCCCCCCCCCC(=O)N(CCCNC(=O)[C@@H](N)[C@@H](C)CC)CCCNC(=O)[C@@H](N)[C@@H](C)CC.O=C(O)C(F)(F)F.O=C(O)C(F)(F)F [Compound 51, N,N-bis-[{3-(^LIle)amido}propyl]dodecanamide bis(trifluoroacetate)]",–,11.3 µM,5.7 µM,95 µM,11 µM,28 µM,8 µM,8 µM,–,–
"CCCCCCCCCCCCCC(=O)N(CCCNC(=O)[C@@H](N)C(C)C)CCCNC(=O)[C@@H](N)C(C)C.O=C(O)C(F)(F)F.O=C(O)C(F)(F)F [Compound 49, N,N-bis-[{3-(^LVal)amido}propyl]tetradecanamide bis(trifluoroacetate)]",–,4 µM,3.4 µM,134 µM,7 µM,7.3 µM,3.6 µM,4 µM,–,–
"CCCCCCCCCCCC(=O)N(CCCNC(=O)CN)CCCNC(=O)CN.O=C(O)C(F)(F)F.O=C(O)C(F)(F)F [Compound 42, N,N-bis-[{3-(Gly)amido}propyl]dodecanamide bis(trifluoroacetate)]",–,112 µM,61 µM,400 µM,340 µM,>340 µM,86 µM,67 µM,–,–
"CCCCCCCCCCCCCCCC(=O)N(CCCNC(=O)[C@@H](N)CC(C)C)CCCNC(=O)[C@@H](N)CC(C)C.O=C(O)C(F)(F)F.O=C(O)C(F)(F)F [Compound 56, N,N-bis-[{3-(^LLeu)amido}propyl]hexadecanamide bis(trifluoroacetate)]",–,3.4 µM,2.9 µM,95 µM,20 µM,280 µM,3.4 µM,3.8 µM,–,–
"CN[C@H](CC(C)C)C(=O)N[C@H]1C(=O)N[C@@H](CC(N)=O)C(=O)N[C@H]2C(=O)N[C@H]3C(=O)N[C@H](C(=O)N[C@H](C(=O)O)c4cc(O)cc(O)c4-c4cc3ccc4O)[C@H](O)c3ccc(c(Cl)c3)Oc3cc2cc(c3O[C@@H]2O[C@H](CO)[C@@H](O)[C@H](O)[C@H]2O[C@H]2C[C@](C)(N)[C@H](O)[C@H](C)O2)Oc2ccc(cc2Cl)[C@H]1O [vancomycin, reference compound]",none of the antibiotics showed significant reduction,–,–,–,–,–,–,–,–,–
"CCCCCCCCCCCCCC(=O)N(CCCNC(=O)[C@@H](N)[C@@H](C)CC)CCCNC(=O)[C@@H](N)[C@@H](C)CC.O=C(O)C(F)(F)F.O=C(O)C(F)(F)F [Compound 52, N,N-bis-[{3-(^LIle)amido}propyl]tetradecanamide bis(trifluoroacetate)]",–,2.6 µM,2.9 µM,64 µM,5 µM,300 µM,4 µM,3 µM,–,–
"CCCCCCCCCCCCCC(=O)N(CCCNC(=O)CN)CCCNC(=O)CN.O=C(O)C(F)(F)F.O=C(O)C(F)(F)F [Compound 43, N,N-bis-[{3-(Gly)amido}propyl]tetradecanamide bis(trifluoroacetate)]",–,13 µM,10.8 µM,157 µM,16 µM,>365 µM,8.8 µM,12.5 µM,–,–
"CCCCCCCCCCCCCCCC(=O)N(CCCNC(=O)[C@H](C)N)CCCNC(=O)[C@H](C)N.O=C(O)C(F)(F)F.O=C(O)C(F)(F)F [Compound 47, N,N-bis-[{3-(^LAla)amido}propyl]hexadecanamide bis(trifluoroacetate)]",–,3 µM,6 µM,68 µM,4 µM,12 µM,3 µM,5.6 µM,–,–
"CCCCCCCCCC(=O)N(CCCNC(=O)[C@@H](N)Cc1ccccc1)CCCNC(=O)[C@@H](N)Cc1ccccc1.O=C(O)C(F)(F)F.O=C(O)C(F)(F)F [Compound 1, N,N-bis-[{3-(^LPhe)amino}propyl]decanamide bis(trifluoroacetate)]",–,17 µM,25 µM,–,24 µM,70 µM,36 µM,19 µM,232,–
"CC(=O)NC[C@H]1CN(c2ccc(N3CCOCC3)c(F)c2)C(=O)O1 [linezolid, reference compound]",none of the antibiotics showed significant reduction,–,–,–,–,–,–,–,–,–
"CCCCCCCCCCCCCCCC(=O)N(CCCNC(=O)[C@@H](N)C(C)C)CCCNC(=O)[C@@H](N)C(C)C.O=C(O)C(F)(F)F.O=C(O)C(F)(F)F [Compound 50, N,N-bis-[{3-(^LVal)amido}propyl]hexadecanamide bis(trifluoroacetate)]",–,1.4 µM,1.9 µM,86 µM,10 µM,>314 µM,1.7 µM,2.7 µM,–,–
"CCCCCCCCCCCCCC(=O)N(CCCNC(=O)[C@@H]1CCCN1)CCCNC(=O)[C@@H]1CCCN1.O=C(O)C(F)(F)F.O=C(O)C(F)(F)F [Compound 58, N,N-bis-[{3-(^LPro)amido}propyl]tetradecanamide bis(trifluoroacetate)]",–,18 µM,15 µM,216 µM,12 µM,135 µM,13 µM,11 µM,–,–
"CCCCCCCCCCCC(=O)N(CCCNC(=O)[C@@H](N)CC(C)C)CCCNC(=O)[C@@H](N)CC(C)C.O=C(O)C(F)(F)F.O=C(O)C(F)(F)F [Compound 54, N,N-bis-[{3-(^LLeu)amido}propyl]dodecanamide bis(trifluoroacetate)]",–,5 µM,8.9 µM,305 µM,8.8 µM,18 µM,8.6 µM,5.8 µM,–,–
